Data as given in patent US20240262842A1, “SMALL MOLECULE INHIBITORS OF KRAS G12C MUTANT” (Merck Sharp & Dohme LLC, priority 2021, published 2024).
Read-outs that look alike come from different tables or passages of the source.

Tests used:
[1] = biological target: T1, interaction between GMPPNP-bound recombinant K-Ras4B G12C mutant protein and cRAF RAS-binding domain (cRAF-RBD) (Homo sapiens, UniProt P01116, G12C); assay: Inhibitory activity on interaction between KRAS G12C and cRAF (Alpha technology)
T1 construct: His-tag (N)
T1 sequence (P01116 with tags, fused parts or gaps isoform P01116-2 G12C): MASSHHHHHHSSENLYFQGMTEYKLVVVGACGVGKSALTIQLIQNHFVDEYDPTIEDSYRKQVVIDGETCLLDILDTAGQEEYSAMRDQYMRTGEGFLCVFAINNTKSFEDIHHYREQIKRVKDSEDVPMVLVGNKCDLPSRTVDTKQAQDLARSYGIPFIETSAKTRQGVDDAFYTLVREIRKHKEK
Procedure, shortened: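 His-tagged K-Ras4B G12C (aa 1-169), GMPPNP-loaded, preincubated with compound 1 h at 25° C in pH 7.5 Tris buffer with MgCl2, TCEP, Tween 20. cRAF-RBD (aa 50-132) and Alpha reagents then added for 1.5 h; Alpha signal normalised to DMSO (0%) and GDP-bound KRAS (100%); IC50 from dose titration.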

MIA PaCa-2 cells = assay: Growth inhibition activity on KRAS-G12C mutant cell line (CellTiter-Glo 3D); assay type: cell-based, human; conditions: MIA PaCa-2, 3-day culture with compound
Procedure, shortened: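 MIA PaCa-2 cells in RPMI1640 with 10% FBS, U-bottom wells, cultured 1 day before compound (0.2% DMSO final), then 3 days at 37 °C, 5% CO2. Viability by CellTiter-Glo 3D luminescence; growth inhibition versus untreated wells gives IC50 (nM).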

[2] = GMPPNP-bound KRAS G12C incubated with compound 25° C. 1 hour, Table 2-1, read-out: IC50
[3] = Homo sapiens, MIA PaCa-2, 72 h, Table 3-1
[4] = IC50, GMPPNP-bound KRAS G12C incubated with compound 25° C. 1 hour, Table 2-1
[5] = IC50, GMPPNP-bound KRAS G12C incubated with compound 25° C. 1 hour, Table 2

## COc1cc2c(nc(C)n2C)c2c1-c1cccn3c(C(=O)c4cc(F)c(NC(=O)/C=C/CNC5(C)CCCC5)c(F)c4)cc(c13)CCN2C [Example 245, (E)-N-(2,6-difluoro-4-(7-methoxy-9,10,12-trimeth-yl-9,12,13,14-tetrahydro-imidazo[4″,5″:5′,6′]benzo-[1′,2′:2,3]azocino[4,5,6-hi]indolizine-2-carbonyl)-phenyl)-4-((1-methyl-cyclopentyl)amino)but-2-enamide]
[1]; [2]
  IC50: 33.1 nM
MIA PaCa-2 cells; [3]
  IC50: 25.4 nM

## CO[C@H]1CC[C@H](NC/C=C/C(=O)Nc2c(F)cc(C(=O)c3cn4c5c(cccc35)-c3c(C)cc5c(nc(C)n5C)c3N(C)CC4)cc2F)CC1 (single isomer, unassigned) [Example 62]
[1]; [4]
  IC50: 17.4 nM
MIA PaCa-2 cells; [3]
  IC50: 6.91 nM

## COCc1nc2c3c(c(C)cc2n1C)-c1cccn2c(C(=O)c4cc(F)c(NC(=O)/C=C/CN[C@H]5CCOC5)c(F)c4)cc(c12)CCN3C (single isomer, unassigned) [Example 106]
[1]; [2]
  IC50: 18 nM
MIA PaCa-2 cells; [3]
  IC50: 21.9 nM

## CO[C@H]1CC[C@H](NC/C=C/C(=O)Nc2c(F)cc(C(=O)c3cn4c5c(cccc35)-c3c(C)cc5c(nc(C)n5C)c3OCCC4)cc2F)CC1 (single isomer, unassigned) [Example 15-1, (E)-N-(2,6-difluoro-4-(6,8,9-trimethyl-13,14-dihydro-8H,12H-imidazo[4″,5″:3′,4′]benzo[1′,2″:8,9][1,5]oxazonino[7,6,5-hi]indole-2-carbonyl)phenyl)-4-(((1r,4r)-4-methoxycyclohexyl)amino)but-2-enamide]
[1]; [5]
  IC50: 3900 nM
MIA PaCa-2 cells; Table 3
  IC50: 2700 nM

## CO[C@H]1CC[C@H](NC/C=C/C(=O)Nc2c(F)cc(C(=O)c3cn4c5c(cccc35)-c3c(C(F)(F)F)cc5c(nc(C)n5C)c3N(C)CC4)cc2F)CC1 [Example 45, (E)-N-(2,6-difluoro-4-(8,9,11-trimethyl-6-(trifluoromethyl)-8,11,12,13-tetrahydroimidazo[4′ 5,6][1,4]diazocino[7,8,1-hi]indole-2-carbonyl)phenyl)-4-(((1,4r)-4-methoxycyclohexyl)amino)but-2-enamide]
[1]; [5]
  IC50: 21 nM
MIA PaCa-2 cells; Homo sapiens, MIA PaCa-2, 72 h, Table 3
  IC50: 5 nM

## COC[C@H](CO)NC/C=C/C(=O)Nc1c(F)cc(C(=O)c2cc3c4c(cccn24)-c2c(C(F)(F)F)cc4c(ncn4C)c2N(C)CC3)cc1F [Example 128, (S,E)-N-(4-(9,12-dimeth-yl-7-(trifluoromethyl)-9,12,13,14-tetrahydro-imidazo[4″,5″:5′,6′]benzo-[1′,2′:2,3]azocino[4,5,6-hi]indolizine-2-carbonyl)-2,6-difluorophenyl)-4-((1-hydroxy-3-methoxy-propan-2-yl)amino)but-2-enamide]
[1]; [2]
  IC50: 18.8 nM
MIA PaCa-2 cells; [3]
  IC50: 11.8 nM

## COCCNC/C=C/C(=O)Nc1c(F)cc(C(=O)c2cc3c4c(cccn24)-c2c(C(F)(F)F)cc4c(ncn4C)c2N(C)CC3)cc1F [Example 126, (E)-N-(4-(9,12-dimethyl-7-(trifluoromethyl)-9,12,13,14-tetrahydro-imidazo[4″,5″:5′,6′]benzo-[1′,2′:2,3]azocino[4,5,6-hi]indolizine-2-carbonyl)-2,6-difluorophenyl)-4-((2-methoxyethyl)amino)but-2-enamide]
[1]; [2]
  IC50: 18 nM
MIA PaCa-2 cells; [3]
  IC50: 14.3 nM

## Cc1c2cc(C(F)(F)F)c3c(c2nn1C)N(C)CCc1nc(C(=O)c2cc(F)c(NC(=O)/C=C/CN[C@H]4CCOC4)c(F)c2)n2cccc-3c12 (single isomer, unassigned) [Example 176]
[1]; [2]
  IC50: 67.4 nM
MIA PaCa-2 cells; [3]
  IC50: 25.1 nM

## CC(O)[C@]1(C)CCCN1C/C=C/C(=O)Nc1c(F)cc(C(=O)c2cc3c4c(cccn24)-c2c(C(F)(F)F)cc4c(ncn4C)c2N(C)CC3)cc1F (single isomer, unassigned) [Example 205]
[1]; [2]
  IC50: 29.5 nM
MIA PaCa-2 cells; Table 3-1
  IC50: 8.55 nM

## Cc1nc2c3c(c(C(F)(F)F)cc2n1C)-c1cccc2c(C(=O)c4cc(F)c(NC(=O)/C=C/CNC5(C)COC5)c(F)c4)cn(c12)CC(=O)N3C [Example 77]
[1]; [4]
  IC50: 80.4 nM
MIA PaCa-2 cells; [3]
  IC50: 54 nM

## Cn1cnc2c3c(c(C(F)(F)F)cc21)-c1cccn2c(C(=O)c4cc(F)c(NC(=O)/C=C/CN5CCCC[C@H]5CO)c(F)c4)cc(c12)CCO3 [Example 222, (S,E)-N-(2,6-difluoro-4-(9-methyl-7-(trifluoro-methyl)-13,14-dihydro-9H-imidazo[4″,5″:5′,6′]-benzo[1′,2′:2,3]oxocino-[4,5,6-hi]indolizine-2-carbonyl)phenyl)-4-(2-(hydroxymethyl)piperidin-1-yl)but-2-enamide]
[1]; [2]
  IC50: 75.8 nM
MIA PaCa-2 cells; [3]
  IC50: 1940 nM

## Cn1cnc2c3c(c(C(F)(F)F)cc21)-c1cccn2c(C(=O)c4cc(F)c(NC(=O)/C=C/CN5CC[C@@H](O)C5)c(F)c4)cc(c12)CCO3 [Example 151, (R,E)-N-(2,6-difluoro-4-(9-methyl-7-(trifluoro-methyl)-13,14-dihydro-9H-imidazo[4″,5″:5′,6′]-benzo[1′,2′:2,3]oxocino-[4,5,6-hi]indolizine-2-carbonyl)phenyl)-4-(3-hydroxypyrrolidin-1-yl)-but-2-enamide]
[1]; [2]
  IC50: 15.5 nM
MIA PaCa-2 cells; [3]
  IC50: 33.9 nM

## CCN(CC)[C@H]1CC[C@H](NC/C=C/C(=O)Nc2c(F)cc(C(=O)c3cn4c5c(cccc35)-c3c(C(F)(F)F)cc5c(nc(C)n5C)c3N(C)CC4)cc2F)CC1 [Example 102, (E)-4-(((1r,4r)-4-(diethyl-amino)cyclohexyl)amino)-N-(2,6-difluoro-4-(8,9,11-trimethyl-6-(trifluoro-methyl)-8,11,12,13-tetra-hydroimidazo[4″,5″:5′,6′]-benzo[1′,2′:5,6][1,4]-diazocino[7,8,1-hi]indole-2-carbonyl)phenyl)but-2-enamide]
[1]; [4]
  IC50: 11.2 nM
MIA PaCa-2 cells; [3]
  IC50: 10.5 nM

## CO[C@H]1CC[C@H](NC/C=C/C(=O)Nc2c(F)cc(C(=O)c3cc4c5c(cccn35)-c3c(C(F)(F)F)cc5c(nc(C)n5C)c3OC(C)C4)cc2F)CC1 (stereo partly shown) [Example 43, (E)-N-(2,6-difluoro-4-(9,10,13-trimethyl-7-(trifluoromethyl)-13,14-dihydro-9H-imidazo[4″,5″:5′,6′]benzo[1′,2′:2,3]oxocino[4,5,6-hi]indolizine-2-carbonyl)phenyl)-4-(((1r,4r)-4-methoxycyclohexyl)amino)but-2-enamide]
[1]; GMPPNP-bound KRAS G12C incubated with compound 25° C. 1 hour, Table 2, read-out: IC50
  IC50: 17 nM
MIA PaCa-2 cells; Table 3
  IC50: 14 nM

## CO[C@H]1CC[C@H](NC/C=C/C(=O)Nc2c(F)cc(C(=O)c3cn4c5c(cccc35)-c3c(C)cc5c(nc(C)n5C)c3OCC4)cc2F)CC1 (single isomer, unassigned) [Example 14-2, (E)-N-(2,6-difluoro-4-(6,8,9-trimethyl-12,13-dihydro-8H-imidazo[4″,5″:3′,4′]benzo[1′,2′:7,8][1,4]oxazocino[6,5,4-hi]indole-2-carbonyl)phenyl)-4-(((11,4r)-4-methoxycyclohexyl)amino)but-2-enamide]
[1]; [5]
  IC50: > 6700 nM
MIA PaCa-2 cells; Table 3
  IC50: 3700 nM

## Cc1cnc2c3c(c(C(F)(F)F)cn12)-c1cccn2c(C(=O)c4cc(F)c(NC(=O)/C=C/CN[C@H]5CCOC5)c(F)c4)cc(c12)CCN3C (single isomer, unassigned) [Example 242]
[1]; [2]
  IC50: 17.8 nM
MIA PaCa-2 cells; [3]
  IC50: 16.7 nM

## Cc1cc2c(nc(C)n2C)c2c1-c1cccc3c(C(=O)c4cc(F)c(NC(=O)/C=C/CN5CCC[C@H]5CO)c(F)c4)cn(c13)CCN2C [Example 114, (S,E)-N-(2,6-difluoro-4-(6,8,9,11-tetramethyl-8,11,12,13-tetrahydro-imidazo[4″,5″:5′,6′]benzo-[1′,2′:5,6][1,4]diazocino-[7,8,1-hi]indole-2-carbon-yl)phenyl)-4-(2-(hydroxy-methyl)pyrrolidin-1-yl)-but-2-enamide]
[1]; [4]
  IC50: 61.1 nM
MIA PaCa-2 cells; [3]
  IC50: 64.5 nM

## Cc1cc2c(nc(C)n2C)c2c1-c1cccc3c(C(=O)c4cc(F)c(NC(=O)/C=C/CN[C@H]5C[C@H]6CC[C@@H]5O6)c(F)c4)cn(c13)CCN2C [Example 136]
[1]; [4]
  IC50: 26.4 nM
MIA PaCa-2 cells; [3]
  IC50: 36.1 nM

## COCc1nc2c3c(c(C(F)(F)F)cc2n1C)-c1cccn2c(C(=O)c4cc(F)c(NC(=O)/C=C/CN[C@H]5CCOC5)c(F)c4)cc(c12)CCO3 [Example 118, (S,E)-N-(2,6-difluoro-4-(10-(methoxymethyl)-9-methyl-7-(trifluorometh-yl)-13,14-dihydro-9H-imidazo[4″,5″:5′,6′]benzo-[1′,2′:2,3]oxocino[4,5,6-hi]indolizine-2-carbonyl)-phenyl)-4-((tetrahydro-furan-3-yl)amino)but-2-enamide]
[1]; [2]
  IC50: 12.6 nM
MIA PaCa-2 cells; [3]
  IC50: 4.2 nM

## CN1CCc2cc(C(=O)c3cc(F)c(NC(=O)/C=C/CNC4(C)CC4)c(F)c3)n3cccc(c23)-c2c(C(F)(F)F)cc3[nH]cnc3c21 (atropisomer, axis not shown) [Example 239, (E)-N-(2,6-difluoro-4-(12-methyl-7-(trifluorometh-yl)-9,12,13,14-tetrahydro-imidazo[4″,5″:5′,6′]benzo-[1′,2′:2,3]azocino[4,5,6-hi]indolizine-2-carbonyl)-phenyl)-4-((1-methyl-cyclopropyl)amino)but-2-enamide]
[1]; [2]
  IC50: 18.2 nM
MIA PaCa-2 cells; [3]
  IC50: 9.69 nM
